Laboratory results published in US20100216805A1, “MODULATION OF NEUROGENESIS USING D-CYCLOSERINE COMBINATIONS” (BrainCells, Inc., priority 2009, published 2010).
Where “and” joins values, the source holds several entries; their conditions need not be identical. Equal entries are not always repeated. Where two headings read alike, the source gives them in different places.

Columns and labels:
[1] = biological target: mGluR2 (Homo sapiens, UniProt Q14416); conditions: read-out: IC50 against mGluR2; cited from earlier work
mGluR2, sequence (Q14416 19-872): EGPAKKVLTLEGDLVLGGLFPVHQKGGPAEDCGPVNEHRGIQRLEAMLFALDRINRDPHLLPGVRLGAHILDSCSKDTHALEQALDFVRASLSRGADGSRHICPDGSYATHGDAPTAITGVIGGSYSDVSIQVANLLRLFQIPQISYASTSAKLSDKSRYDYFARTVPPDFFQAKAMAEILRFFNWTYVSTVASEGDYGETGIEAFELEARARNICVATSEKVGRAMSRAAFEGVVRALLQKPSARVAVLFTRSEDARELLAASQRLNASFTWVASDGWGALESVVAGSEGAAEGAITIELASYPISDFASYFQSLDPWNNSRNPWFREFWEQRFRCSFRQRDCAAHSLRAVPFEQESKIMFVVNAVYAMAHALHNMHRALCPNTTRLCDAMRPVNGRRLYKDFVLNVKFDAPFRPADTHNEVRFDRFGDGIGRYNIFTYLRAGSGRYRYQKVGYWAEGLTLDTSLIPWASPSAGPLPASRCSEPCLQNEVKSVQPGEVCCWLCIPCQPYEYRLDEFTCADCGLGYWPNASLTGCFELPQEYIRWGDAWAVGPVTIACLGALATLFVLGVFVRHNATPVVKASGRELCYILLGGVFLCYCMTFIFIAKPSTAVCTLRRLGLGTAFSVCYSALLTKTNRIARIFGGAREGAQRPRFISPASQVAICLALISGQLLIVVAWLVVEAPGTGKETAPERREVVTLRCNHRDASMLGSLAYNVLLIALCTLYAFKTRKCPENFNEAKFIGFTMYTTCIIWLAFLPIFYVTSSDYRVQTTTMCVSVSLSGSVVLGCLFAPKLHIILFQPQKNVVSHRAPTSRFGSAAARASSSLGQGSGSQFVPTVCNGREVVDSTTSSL

[2] = biological target: mGluR3 (Homo sapiens, UniProt Q14832); conditions: read-out: IC50 against mGluR3; cited from earlier work
mGluR3, sequence (Q14832 23-879): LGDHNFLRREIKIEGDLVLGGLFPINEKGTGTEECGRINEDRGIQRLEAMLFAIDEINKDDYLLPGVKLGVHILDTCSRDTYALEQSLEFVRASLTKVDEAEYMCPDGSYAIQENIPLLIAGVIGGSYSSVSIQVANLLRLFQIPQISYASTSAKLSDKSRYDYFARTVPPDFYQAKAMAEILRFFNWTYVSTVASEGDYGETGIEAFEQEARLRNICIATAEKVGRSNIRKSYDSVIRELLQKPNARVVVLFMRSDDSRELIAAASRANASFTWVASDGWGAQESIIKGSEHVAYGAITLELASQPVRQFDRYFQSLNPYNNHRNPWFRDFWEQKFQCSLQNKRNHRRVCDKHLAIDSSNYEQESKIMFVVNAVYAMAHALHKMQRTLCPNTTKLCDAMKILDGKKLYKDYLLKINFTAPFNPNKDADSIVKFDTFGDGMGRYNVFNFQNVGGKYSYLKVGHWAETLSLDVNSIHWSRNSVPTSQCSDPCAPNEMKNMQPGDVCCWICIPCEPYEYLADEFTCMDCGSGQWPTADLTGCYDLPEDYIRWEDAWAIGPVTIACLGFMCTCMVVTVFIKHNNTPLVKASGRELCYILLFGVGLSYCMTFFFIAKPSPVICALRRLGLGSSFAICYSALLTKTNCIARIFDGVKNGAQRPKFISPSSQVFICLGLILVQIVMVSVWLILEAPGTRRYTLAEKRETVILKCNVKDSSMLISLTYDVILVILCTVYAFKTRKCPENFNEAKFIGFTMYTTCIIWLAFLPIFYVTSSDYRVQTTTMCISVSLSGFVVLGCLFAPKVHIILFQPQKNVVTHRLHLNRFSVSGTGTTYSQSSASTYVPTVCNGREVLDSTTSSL

[3] = test system: Group I or Group III receptors; conditions: at sub-mM concentrations; cited from earlier work
[4] = biological target: human mGlu2 (Homo sapiens, UniProt Q14416); conditions: in vitro; low nanomolar range; read-out: EC50 against human mGlu2 receptor; cited from earlier work
human mGlu2, sequence (Q14416 19-872): as the sequence (Q14416 19-872) above

[5] = biological target: human mGlu3 (Homo sapiens, UniProt Q14832); conditions: in vitro; low nanomolar range; read-out: EC50 against human mGlu3 receptor; cited from earlier work
human mGlu3, sequence (Q14832 23-879): as the sequence (Q14832 23-879) above

[6] = test system: Human neural stem cells (hNSCs); assay: Neuronal differentiation of human neural stem cells (TUJ-1 staining), concentration response and combination index; assay type: cell-based
Experimental: Mitogen-free test media with a positive control for neuronal differentiation was used along with basal media without growth factors as a negative control.
To determine the most efficacious dose and dose ratio of D-cycloserine in combination with pindolol or (S)-(−)-pindolol for future preclinical and clinical studies, dose ranging studies were conducted examining synergy for neurogenesis. […] The pindolol or (S)-(−)-pindolol concentrations were varied based on the respective ratios tested. Individual dose response curves were prepared for each concentration ratio as previously described with cells stained with TUJ-1 antibody for the detection of neuronal differentiation.
The presence of synergy was determined by use of a combination index (CI). […] The CI is a quantitative measure of the nature of drug interactions, comparing the EC50's of two compounds, when each is assayed alone, to the EC50 of each compound when assayed in combination. The combination index (CI) is equal to the following formula: […]
where C1 and C2 are the concentrations of a first and a second compound, respectively, resulting in 50% activity in neuronal differentiation when assayed in combination; and IC1 and IC2 are the concentrations of each compound resulting in 50% activity when assayed independently.

[7] = test system: KA, AMPA, and NMDA iGlu receptors; conditions: cited from earlier work
[8] = Homo sapiens, Neural stem cell, agent run independently, % of neuronal positive control, basal media subtracted, figure legends, read-out: EC50 when used alone, neuronal differentiation

NC1(C(=O)O)CCc2cc(P(=O)(O)O)ccc21 (racemic) [APICA, (RS)-1-amino-5-phosphonoindan-1-carboxylic acid]
IC50 [1]: ~30 µM
IC50 [2]: ~30 µM
activity against Group I or Group III receptors [3]: no appreciable activity

N[C@@]1(C(=O)O)CO[C@H]2[C@H](C(=O)O)[C@H]21 [LY379268, (−)-2-Oxa-4-aminobicyclohexane-4,6-dicarboxylic acid]
EC50 [4]: < 0.01 µM
EC50 [5]: < 0.01 µM

NC(=O)C[S+]([O-])C(c1ccccc1)c1ccccc1 (centres unmarked) [modafinil]
EC50 ([6]; Homo sapiens, Neural stem cell, read-out: EC50 when used alone, neuronal differentiation): 11 µM

N[C@@H]1CONC1=O [D-cycloserine, (4R)-4-amino-1,2-oxazolidin-3-one]
EC50 ([6]; Homo sapiens, Neural stem cell, Table 1, D-cycloserine alone, run with the ratio of that row, read-out: Solo EC50's D-cycloserine): 7.91 µM
EC50 ([6]; Homo sapiens, Neural stem cell, Table 2, D-cycloserine alone, run with the ratio of that row, read-out: Solo EC50's D-cycloserine): 5.62 µM
EC50 ([6]; Table 1, D-cycloserine alone, run with the ratio of that row, read-out: Solo EC50's D-cycloserine): 8.48 µM and 7.41 µM
EC50 ([6]; Table 2, D-cycloserine alone, run with the ratio of that row, read-out: Solo EC50's D-cycloserine): 8.48 µM

CC(=O)N[C@@H](CS)C(=O)O [N-acetyl-L-cysteine]
EC50 [6, 8]: 114 µM

CC1(C)O[C@@H]2[C@@H](CO[C@@]3(COS(N)(=O)=O)OC(C)(C)O[C@@H]23)O1 [topiramate]
EC50 [6, 8]: 7.1 µM

Nc1nc2ncc(CNc3ccc(C(=O)N[C@@H](CCC(=O)O)C(=O)O)cc3)nc2c(=O)[nH]1 [folic acid]
EC50 [6, 8]: 1.09 µM

N[C@](CC1c2ccccc2Oc2ccccc21)(C(=O)O)[C@H]1C[C@@H]1C(=O)O [LY341495, (2S)-2-amino-2-(1S,2S-2-carboxycycloprop-1-yl)-3-(xanth-9-yl) propanoic acid]
activity against KA, AMPA, and NMDA iGlu receptors [7]: substantially inactive

CC(C)(C)NCC(O)COc1cccc2c1CC(O)C(O)C2 (centres unmarked) [nadolol]
EC50 [6, 8]: 6.7 µM

CC(CCc1ccccc1)NCC(O)c1ccc(O)c(C(N)=O)c1 (centres unmarked) [labetalol]
EC50 [6, 8]: 5.5 µM

CC(C)NC[C@H](O)COc1cccc2[nH]ccc12 [(S)-(−)-Pindolol]
EC50 ([6]; Table 2, (S)-(−)-pindolol alone, run with the ratio of that row, read-out: Solo EC50's (S)-(−)-Pindolol): 2.8 µM and 1.82 µM and 1.78 µM
EC50 ([6]; agent run independently, % of neuronal positive control, basal media subtracted, figure legends, read-out: EC50 when used alone, neuronal differentiation): 1.8 µM

COCCOC(=O)C1=C(C)NC(C)=C(C(=O)OC(C)C)C1c1cccc([N+](=O)[O-])c1 (centres unmarked) [nimodipine]
EC50 [6, 8]: 100 µM

CCC(=O)c1c(O)cc(O)cc1O [flopropione]
EC50 [6, 8]: 16.6 µM

CC(C)NCC(O)COc1cccc2[nH]ccc12 (centres unmarked) [Pindolol]
EC50 ([6]; Homo sapiens, Neural stem cell, Table 1, pindolol alone, run with the ratio of that row, read-out: Solo EC50's Pindolol): 1.43 µM
EC50 [6, 8]: 1.4 µM
EC50 ([6]; Table 1, pindolol alone, run with the ratio of that row, read-out: Solo EC50's Pindolol): 1.32 µM and 1.98 µM and 1.65 µM
